Data on ten compounds can be found in publication PMC6749521, “The Effect of Flavonoid Aglycones on the CYP1A2, CYP2A6, CYP2C8 and CYP2D6 Enzymes Activity” (Molecules, 2019).

Where two headings read alike, the source gives them in different places.

The target in one series is T1, CYP1A2 (Homo sapiens, UniProt P05177).
T1 sequence (P05177 1-516): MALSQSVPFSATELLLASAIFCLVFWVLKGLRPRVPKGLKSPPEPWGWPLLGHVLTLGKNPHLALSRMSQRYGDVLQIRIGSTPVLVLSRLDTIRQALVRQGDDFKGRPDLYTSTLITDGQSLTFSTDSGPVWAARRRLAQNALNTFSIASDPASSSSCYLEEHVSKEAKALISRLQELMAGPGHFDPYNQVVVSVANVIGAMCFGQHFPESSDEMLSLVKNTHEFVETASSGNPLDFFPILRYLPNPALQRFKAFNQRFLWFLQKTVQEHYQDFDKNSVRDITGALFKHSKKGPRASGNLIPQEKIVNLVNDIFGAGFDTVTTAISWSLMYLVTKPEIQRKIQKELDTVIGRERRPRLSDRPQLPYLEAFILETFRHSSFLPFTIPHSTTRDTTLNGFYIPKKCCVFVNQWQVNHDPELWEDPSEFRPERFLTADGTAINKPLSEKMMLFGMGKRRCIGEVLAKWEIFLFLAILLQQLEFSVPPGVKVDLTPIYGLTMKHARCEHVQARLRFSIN
In words: CYP1A2 enzyme activity, phenacetin O-deethylation (MDI, TDI, DI assays), recombinant baculosomes. To be noted: 1 µM flavonoid. The protocol:
(§1) The recombinant baculosomes with hyperexpressed cytochromes P450 (1A2, 2A6, 2C8, and 2D6) and coexpressed NADPH cytochrome P450 reductase and cytochrome b5 were used as a source of enzyme. Baculosomes were commercially obtained from Thermo Fisher Scientific (Waltham, MA, USA), and all other chemicals from Sigma-Aldrich if not otherwise indicated. A 1.0 M solution phosphate buffer of pH 7.4 was prepared in house. NADPH generating system was prepared of 0.1 M glucose-6-phosphate, 10 mg mL^−1 NADP^+, and 1000 IU mL^−1 glucose-6-phosphate dehydrogenase in ratio 100:50:2 (v/v/v).
Phenacetine O-deethylation was used as a marker reaction for monitoring CYP1A2 enzyme activity (Figure 2). Incubations of 100 µL were conducted at the temperature of 37 °C. The pH of the incubation mixture was set at 7.4 using a potassium phosphate buffer (final concentration 50 mM). The total amount of CYP1A2 enzyme was 5 pmol, and the final concentration of substrate was 150 µM. Residual activity was determined by incubating the flavonoid (1 µM) with phenacetine as a substrate for 15 min, with or without preincubation, depending of the type of inhibition assay. Reactions were started by the addition of 15 µL of NADPH generating system, while the reactions were stopped by the addition of 1 mL 1% formic acid in acetonitrile. After centrifugation (10 min, 1900× g), the clear solution was transferred to a vial for HPLC analysis.
HPLC analysis was performed on Agilent 1100 instrument (Santa Clara, CA, USA) coupled with a diode array detector (DAD) on Luna C18 column (4.6 × 150 mm, 3 μm). The gradient method was used for separation. Mobile phase A consisted of water, acetonitrile, and glacial acetic acid in the volume ratio of 90:10:0.1, while mobile phase B contained the same solvents in the ratio 10:90:0.1. The following gradient timetable was used (t/min, %B): (0, 0), (2, 0), (13, 55), (14, 0), (20, 0). The flow rate was 1 mL/min, and chromatograms were recorded at 254 nm. Volume of incubation injected to the column was 15 µL. […] The amount of generated product (acetaminophen) was determined as the area under the curve based on the calibration curve of the standard.
(§2) Three types of experiments were conducted to determine metabolism dependent inhibition, time dependent inhibition, and direct inhibition of CYP1A2, CYP2A6, CYP2C8, and CYP2D6 enzymes.
(§3) To determine metabolism dependent inhibition (MDI assay), the flavonoid was first preincubated with the enzyme with the addition of the generating system for 30 min, after which the marker substrate was added to determine residual enzyme activity (as described above for each enzyme).
(§4) If metabolism dependent inhibition was determined, time dependent inhibition and direct inhibition were tested. Time dependent inhibition (TDI assay) was assessed by preincubating the flavonoid and enzyme, without the generating system, after which residual activity was determined by adding the NADPH generating system along with the substrate (as described above for each enzyme).
(§5) The direct inhibition assay (DI assay) was conducted without preincubation, i.e., the NADPH generating system was added to the incubation mixture containing flavonoid and substrate following the experimental set-up described above for each individual cytochrome P450 enzyme.
(§6) Pure time dependent inhibitors require time to interact with the enzyme. Thus, TDI inhibitors will show a reduction of enzyme activity in assays with preincubations, i.e., the MDI and TDI assays, but not in the DI assay (no preincubation). […] DI inhibitors will reduce enzyme activity in all three assays (MDI, TDI, and DI).
All incubations were conducted in triplicate. The results are expressed as the residual activity of the enzyme, i.e., the percentage of product generated in incubation with the addition of flavonoid in ratio to the control without flavonoid.

The subject of another series is rat liver microsomes. On the set-up: method as in ref 24 (Siess et al.). To be noted: ref 24 (Siess et al.), cited from earlier work.
The next series has as its system CYP3A4. Details: method as in PMID 30301254. As to conditions: statistical significance p < 0.1; cited from earlier work.
The target of series [1] is T2, CYP2A6 (Homo sapiens, UniProt P11509).
T2 sequence (P11509 1-494): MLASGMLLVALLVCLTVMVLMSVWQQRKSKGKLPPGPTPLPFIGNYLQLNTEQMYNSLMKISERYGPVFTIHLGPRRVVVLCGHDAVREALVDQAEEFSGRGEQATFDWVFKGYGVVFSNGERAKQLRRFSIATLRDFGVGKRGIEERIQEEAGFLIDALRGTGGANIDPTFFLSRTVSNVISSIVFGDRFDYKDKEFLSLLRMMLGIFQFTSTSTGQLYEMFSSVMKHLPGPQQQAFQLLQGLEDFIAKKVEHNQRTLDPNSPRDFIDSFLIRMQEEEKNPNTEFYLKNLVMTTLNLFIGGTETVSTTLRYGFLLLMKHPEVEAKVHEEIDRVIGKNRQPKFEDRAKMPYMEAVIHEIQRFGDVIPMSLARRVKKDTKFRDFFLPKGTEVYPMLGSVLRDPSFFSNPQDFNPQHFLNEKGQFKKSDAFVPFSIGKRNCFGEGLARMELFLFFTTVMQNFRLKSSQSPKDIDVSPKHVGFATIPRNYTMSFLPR
Briefly: CYP2A6 enzyme activity, coumarin 7-hydroxylation (MDI, TDI, DI assays), recombinant baculosomes. As to conditions: for Inhibition of CYP2A6 enzyme activity / activity at 30 min, 1 µM: 1 µM flavonoid; for activity at 30 min, 1 µM: human, pH 7.4, probe coumarin (7-hydroxylation), 10 µM, Residual CYP2A6 enzyme activity. As to the method: as §1
The aromatic hydroxylation of coumarin at the position 7 was used as a marker reaction for CYP2A6. The incubation conditions were the same as for CYP1A2 enzyme (vide supra) unless otherwise stated. The final concentration of coumarin was 10 µM, while the incubation time was extended to 30 min.
HPLC-DAD analysis was conducted on the same system as the CYP1A2 enzyme with the following modifications: The gradient timetable (t/min, %B) was (0, 20), (1.5, 20), (10, 70), (11, 20), (17, 20), and the detection wavelength was 330 nm. The retention time of the substrate (coumarin) was 7.5 min, while the product (7-hydroxycoumarin) was detected at 4.8 min. The amount of generated product was determined as the area under the curve based on the calibration curve of the standard.
as §2, §3, §4, §5, §6
(§7) All incubations were conducted in triplicate. The results are expressed as the residual activity of the enzyme, i.e., the percentage of product generated in incubation with the addition of flavonoid in ratio to the control without flavonoid. The statistical significance was tested with Student’s t-test in the program R (The R Project for Statistical Computing, Vienna, Austria).

Series [2] concerns CYP2A6. As to conditions: ref 31 (Boonruanga et al.), cited from earlier work.
For a further series, the target named is T3, CYP2C8 (Homo sapiens, UniProt P10632).
T3 construct: purchased Thermo Fisher Scientific; host or cells: baculosomes
T3 sequence (P10632 1-490): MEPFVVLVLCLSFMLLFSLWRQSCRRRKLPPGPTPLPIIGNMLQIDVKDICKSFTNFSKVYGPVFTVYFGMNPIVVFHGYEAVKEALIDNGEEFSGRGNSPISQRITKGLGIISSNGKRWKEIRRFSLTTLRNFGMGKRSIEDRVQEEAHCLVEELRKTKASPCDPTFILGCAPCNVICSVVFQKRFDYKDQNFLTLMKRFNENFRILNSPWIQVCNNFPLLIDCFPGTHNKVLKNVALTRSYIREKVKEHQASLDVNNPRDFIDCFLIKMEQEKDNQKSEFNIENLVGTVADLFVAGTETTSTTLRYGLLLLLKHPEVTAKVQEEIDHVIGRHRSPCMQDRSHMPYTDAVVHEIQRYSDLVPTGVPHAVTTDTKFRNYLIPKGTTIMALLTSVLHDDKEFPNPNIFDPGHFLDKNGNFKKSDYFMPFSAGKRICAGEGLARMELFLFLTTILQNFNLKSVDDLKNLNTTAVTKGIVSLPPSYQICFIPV
In words: CYP2C8 enzyme activity, paclitaxel 6α-hydroxylation (MDI, TDI, DI assays), recombinant baculosomes. Format: biochemical. To be noted: for Inhibition of CYP2C8 paclitaxel 6-α-hydroxylation / CYP2C8 enzyme activity in the TDI assay: 1 µM flavonoid; for Type of CYP2C8 inhibition: concluded from MDI, TDI, DI assays at 1 µM. The protocol: as §1
Paclitaxel 6α-hydroxylation was used as a marker reaction for monitoring CYP2C8 enzyme activity (Figure 2). The incubation conditions were the same as for CYP1A2 enzyme (vide supra) unless otherwose stated. The final concentration of paclitaxel was 20 µM, while the incubation time was set to 30 min.
HPLC-DAD analysis was conducted on the same system as the CYP1A2 enzyme with the following modifications: The gradient timetable (t/min, %B) was (0, 50), (2, 50), (10, 90), (11, 50), (17, 50), and the detection wavelength was 227 nm. […] The amount of generated product was determined as the area under the curve based on the calibration curve of the standard.
as §2, §3, §4, §5, §6, §7

Turning to `O=c1c(O)c(-c2ccc(O)cc2O)oc2cc(O)cc(O)c12` [morin], the “Inhibition of CYP1A2 activity” value at CYP1A2 was “inhibited”. Besides, the “Inhibition constant relative to chrysin” value with rat liver microsomes (morin versus chrysin) is given as 16 fold. Also, the Ki at rat liver microsomes (read-out: Inhibition constant, ethoxy- and pentoxy-resorufin dealkylation) is 5000 nM. Further, the “Type of inhibition of ethoxy- and pentoxy-resorufin dealkylation” value in the series with rat liver microsomes is on record as “mix type reversible”. Moreover, the “Inhibition of CYP3A4 metabolic activity” value with CYP3A4 is reported as “inhibition”.
In the case of `COc1ccc([C@@H]2CC(=O)c3c(O)cc(O)cc3O2)cc1O` [hesperetin], the “Inhibition of CYP3A4 metabolic activity” value in the series with CYP3A4 is recorded as “inhibition”.
What is called IC50 is the concentration needed to halve the response being measured. Regarding `O=c1cc(-c2ccc(O)cc2)oc2cc(O)cc(O)c12` [apigenin], the “Inhibition of CYP2A6 enzyme activity” value on CYP2A6 [1] is recorded as “inhibited”. For the same compound, the activity at 30 min, 1 µM at CYP2A6 [1] (direct inhibition (DI) assay) amounted to 48 ± 1%; at CYP2A6 [1] (metabolism dependent inhibition (MDI) assay, coumarin 10 µM) it was 47 ± 7%. In addition, the IC50 in the series on CYP2A6 [2] (read-out: IC50, direct inhibition assay) was 900 ± 70 nM; in the series with CYP2A6 [2] (read-out: IC50, metabolism dependent inhibition assay) it was 770 ± 160 nM.
As to `COc1ccc(-c2cc(=O)c3c(O)cc(O)cc3o2)cc1` [acacetin], the “Inhibition of CYP3A4 metabolic activity” value with CYP3A4 is listed as “inhibition”.
Turning to `COc1ccc(-c2cc(=O)c3c(OC)c(OC)c(OC)c(OC)c3o2)cc1` [tangeretin], the “Inhibition of CYP2A6 enzyme activity” value at CYP2A6 [1] is recorded as “inhibited”. In addition, the “Type of CYP2A6 inhibition” value on CYP2A6 [1] (concluded from MDI, TDI, DI assays at 1 µM) is reported as “direct inhibitor”. In addition, the “Inhibition of CYP3A4 metabolic activity” value with CYP3A4 is reported as “inhibition”.
In the case of `O=c1cc(-c2ccccc2)oc2ccccc12` [flavone], the “Inhibition of CYP3A4 metabolic activity” value in the series on CYP3A4 is “inhibition”.
Take `COc1ccc(-c2oc3cc(O)cc(O)c3c(=O)c2O)cc1O` [tamarixetin]: the “Inhibition of CYP3A4 metabolic activity” value in the series with CYP3A4 is “inhibition”.
For the compound `COc1cc(OC)c2c(=O)cc(-c3ccccc3)oc2c1` [chrysin-dimethylether], on CYP2C8, the “Inhibition of CYP2C8 paclitaxel 6-α-hydroxylation” value was “inhibition”; the “CYP2C8 enzyme activity in the TDI assay” value is recorded as “reduction of enzyme activity was not observed”; the “Type of CYP2C8 inhibition” value was “mixed reversible and irreversible inhibitors”. In the series with CYP3A4, the “Inhibition of CYP3A4 metabolic activity” value is on record as “inhibition”.
`O=C1C[C@@H](c2ccccc2)Oc2cc(O)cc(O)c21` [pinocembrin]: in the series on CYP3A4, the “Inhibition of CYP3A4 metabolic activity” value is on record as “inhibition”.
As for `O=c1c(O)c(-c2ccccc2)oc2cc(O)cc(O)c12` [galangin], on CYP2A6 [1], the “Inhibition of CYP2A6 enzyme activity” value is given as “inhibited”. On CYP2C8, the “Inhibition of CYP2C8 paclitaxel 6-α-hydroxylation” value is reported as “inhibition”; the “CYP2C8 enzyme activity in the TDI assay” value was “reduction of enzyme activity was not observed”; the “Type of CYP2C8 inhibition” value is “mixed reversible and irreversible inhibitors”. Further, the “Inhibition of CYP3A4 metabolic activity” value with CYP3A4 was “inhibition”.
